Test results from US20150239889A1, “PYRAZOLOPYRIMIDINE COMPOUND” (MITSUBISHI TANABE PHARMA CORPORATION, priority 2012, published 2015).

Experiments:
human HIF-PHD2 = target: T1, human HIF-PHD2 (Homo sapiens, UniProt Q9GZT9); assay: HIF-PHD inhibition assay (fluorescence polarization), human HIF-PHD2; assay type: biochemical; settings: 2-oxoglutaric acid 3.33 μmol/L
T1 construct: purchased CrystalGenomics Ltd
In short: (§1)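 FP readout; enzyme activity = mP post-enzyme − mP pre-enzyme. FAM-labelled probe, ACA spacer.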

human HIF-PHD3 = target: T2, human HIF-PHD3 (Homo sapiens, UniProt Q9H6Z9); assay: HIF-PHD inhibition assay (fluorescence polarization), human HIF-PHD3; assay type: biochemical; settings: 2-oxoglutaric acid 166 μmol/L
T2 construct: purchased CrystalGenomics Ltd
In short: as §1

Hep3B cells = assay: EPO production assay (ELISA of culture supernatant); assay type: cell-based; settings: Homo sapiens, 3 μmol/L test compound, 48 hours, relative to control (0.1% DMSO), read-out: EPO production stimulation rate with 3 μmol/L test compound
Experimental: The stimulatory effect of the compound onEPO production was determined as follows using Hep3B cells.
Cells were seeded on 96 well plates at 40000 cells/well, and the plate was incubated overnight in MEM medium containing 10% fetal bovine serum (FBS) at 37° C. under 5% CO2. The next day, the medium was replaced with MEM containing 0.5% FBS, followed by addition of test compound. The test compound was dissolved in dimethyl sulfoxide and added to the cell so that the final concentration of dimethyl sulfoxide was 0.1%. After incubation for additional 48 hours, the culture supernatant was collected, and EPO contained in the supernatant was determined using ELISA kit (EPO ELISA Kit 11-693-417-001, Roche Co.). The results were expressed as stimulation rate of EPO production (fold), which was calculated as the relative value of the EPO production with 3 μmol/L of the test compound compared to the EPO production without stimulation (control).
Stimulation rate of EPO production (fold)=(EPO production with addition of test compound)/(EPO production of control)

T1 sequence (Q9GZT9 2-426 limits assumed): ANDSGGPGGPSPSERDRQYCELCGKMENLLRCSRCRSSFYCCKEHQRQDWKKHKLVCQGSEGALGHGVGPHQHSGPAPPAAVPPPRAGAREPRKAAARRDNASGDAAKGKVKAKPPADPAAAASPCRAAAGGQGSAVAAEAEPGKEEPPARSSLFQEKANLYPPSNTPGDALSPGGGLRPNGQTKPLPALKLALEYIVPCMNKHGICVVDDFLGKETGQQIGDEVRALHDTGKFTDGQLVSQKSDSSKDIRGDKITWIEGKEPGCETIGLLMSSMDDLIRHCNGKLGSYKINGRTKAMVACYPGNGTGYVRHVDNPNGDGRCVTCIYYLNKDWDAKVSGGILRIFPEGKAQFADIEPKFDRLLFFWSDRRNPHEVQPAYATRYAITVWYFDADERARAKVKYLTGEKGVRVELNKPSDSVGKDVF
T2 sequence (Q9H6Z9 whole entry): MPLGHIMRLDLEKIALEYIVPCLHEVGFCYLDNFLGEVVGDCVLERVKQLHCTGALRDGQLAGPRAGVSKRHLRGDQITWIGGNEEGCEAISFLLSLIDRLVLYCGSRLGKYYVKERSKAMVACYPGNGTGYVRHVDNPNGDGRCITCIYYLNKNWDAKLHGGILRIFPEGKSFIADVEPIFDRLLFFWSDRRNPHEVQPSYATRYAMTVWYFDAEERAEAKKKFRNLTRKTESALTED

Row | SMILES | IC50 (human HIF-PHD2) | IC50 (human HIF-PHD3) | fold induction at 3 µM (Hep3B cells)
1 | C[C@H](c1ccc(-c2ccccc2F)cc1)n1ncc2nc(-n3cc(C(=O)O)cn3)nc(O)c21 [Example 111] | 25 nM | > 1000 nM | 36
2 | O=C(O)c1cnn(-c2nc(O)c3c(cnn3Cc3ccc(-c4ccccc4F)cc3C(F)(F)F)n2)c1 [Example 89] | 48 nM | 1300 nM | 16
3 | O=C(O)c1cnn(-c2nc(O)c3c(cnn3CCCOc3cccc4c3CCCC4)n2)c1 [Example 193] | 85 nM | 190 nM | 9.8
4 | O=C(O)c1cnn(-c2nc(O)c3c(cnn3Cc3cc(-c4ccccc4)ccc3F)n2)c1 [Example 49] | 30 nM | 200 nM | 7.6
5 | O=C(O)c1cnn(-c2nc(O)c3c(cnn3CCCOc3ccc(Cl)c4c3CCC4)n2)c1 [Example 194] | 14 nM | 53 nM | 18
6 | O=C(O)c1cnn(-c2nc(O)c3nn(CCC(c4ccccc4)c4ccccc4)cc3n2)c1 [Example 248] | 15 nM | 99 nM | 3.2
7 | O=C(O)c1cnn(-c2nc(O)c3c(cnn3CCCn3ccc4ccccc43)n2)c1 [Example 167] | 17 nM | 140 nM | 2.1
8 | O=C(O)c1cnn(-c2nc(O)c3c(cnn3CCCOc3cccc(C(F)(F)F)c3)n2)c1 [Example 174] | 32 nM | 570 nM | 9.9
9 | CC(C)(Cn1ncc2nc(-n3cc(C(=O)O)cn3)nc(O)c21)Oc1ccccc1Cl [Example 209] | 33 nM | 230 nM | 2.2
10 | O=C(O)c1cnn(-c2nc(O)c3c(cnn3C(c3ccc(Cl)cc3)c3ccc(Cl)cc3)n2)c1 [Example 27] | 20 nM | 2600 nM | 26
11 | O=C(O)c1cnn(-c2nc(O)c3nn(CCCN(c4ccccc4)c4ccccc4)cc3n2)c1 [Example 246] | 21 nM | 160 nM | 1.8
12 | O=C(O)c1cnn(-c2nc(O)c3c(cnn3Cc3ccc(-c4c(F)cccc4F)cc3F)n2)c1 [Example 81] | 35 nM | 170 nM | 5.4
13 | O=C(O)c1cnn(-c2nc(O)c3c(cnn3CCc3cccc(Cl)c3)n2)c1 [Example 114] | 20 nM | 300 nM | 5.2
14 | O=C(O)c1cnn(-c2nc(O)c3c(cnn3Cc3ccc4cc(F)ccc4c3)n2)c1 [Example 32] | 14 nM | 320 nM | 5.7
15 | O=C(O)c1cnn(-c2nc(O)c3c(cnn3CCOc3ccc4ccccc4c3)n2)c1 [Example 207] | 13 nM | 160 nM | 2.5
16 | O=C(O)c1cnn(-c2nc3cnn(Cc4ccc(-c5ccccc5F)c(F)c4)c3c(=O)[nH]2)c1 [Example 93] | – | 130 nM | 23
17 | C[C@@H](c1ccc(Cl)c(Cl)c1)n1ncc2nc(-n3cc(C(=O)O)cn3)nc(O)c21 [Example 23] | – | 220 nM | 3.2
18 | Cc1ccc(C(C)(C)Cn2ncc3nc(-n4cc(C(=O)O)cn4)nc(O)c32)cc1 [Example 119] | 240 nM | – | 3.7
19 | O=C(O)c1cnn(-c2nc3cn(Cc4ccc(-c5ccccc5)cc4)nc3c(=O)[nH]2)c1 [Example 237] | – | 38 nM | 4.3
20 | O=C(O)c1cnn(-c2nc3cnn(Cc4ccc(-c5ccccc5)cc4)c3c(=O)[nH]2)c1 [Example 55] | – | 24 nM | 34
21 | C[C@H](c1ccc(Cl)c(Cl)c1)n1ncc2nc(-n3cc(C(=O)O)cn3)nc(O)c21 [Example 22] | – | 540 nM | 6.9
22 | CC(C)(Cn1ncc2nc(-n3cc(C(=O)O)cn3)nc(O)c21)c1ccc(Cl)c(Cl)c1 [Example 121] | 210 nM | 610 nM | –
23 | CC(C)C(c1ccc(F)c(F)c1)n1ncc2nc(-n3cc(C(=O)O)cn3)nc(O)c21 (stereo not drawn) [Example 358] | 45 nM | 700 nM | –
24 | CC(C)C(c1cc(F)cc(F)c1)n1ncc2nc(-n3cc(C(=O)O)cn3)nc(O)c21 (single isomer, unassigned) [Example 361] | 61 nM | 760 nM | –
25 | O=C(O)c1cnn(-c2nc3cnn(Cc4ccc(Cl)c(Cl)c4)c3c(=O)[nH]2)c1 [Example 1, 1-[1-(3,4-dichlorobenzyl)-7-hydroxy-1H-pyrazolo[4,3-d]pyrimidin-5-yl]-1H-pyrazole-4-carboxylic acid] | – | 160 nM | 4.6
26 | Cc1cc(C(C)n2ncc3nc(-n4cc(C(=O)O)cn4)nc(O)c32)ccc1Cl (stereo not drawn) [Example 293] | 61 nM | 510 nM | –
27 | CC(C)c1ccccc1-c1ccc(Cn2ncc3nc(-n4cc(C(=O)O)cn4)nc(O)c32)cc1 [Example 59] | 29 nM | 95 nM | –

Further lines, with some results ahead:

Row | IC50 (human HIF-PHD2) | IC50 (human HIF-PHD3) | SMILES | fold induction at 3 µM (Hep3B cells)
28 | 16 nM | 200 nM | O=C(O)c1cnn(-c2nc(O)c3c(cnn3CC3CCC4(CCC4)CC3)n2)c1 [Example 379] | 10
29 | 18 nM | 480 nM | Cc1nn([C@@H](C)c2ccc(C(F)(F)F)cc2)c2c(O)nc(-n3cc(C(=O)O)cn3)nc12 [Example 446] | 6.3
30 | 66 nM | 820 nM | C[C@H](c1ccccc1)n1ncc2nc(-n3cc(C(=O)O)cn3)nc(O)c21 [Example 16] | 3.1
31 | 83 nM | – | Cc1nn(CC2CCCCC2)c2c(O)nc(-n3cc(C(=O)O)cn3)nc12 [Example 230] | 2
32 | 47 nM | 670 nM | CC[C@H]1CC[C@H](n2nc(F)c3nc(-n4cc(C(=O)O)cn4)nc(O)c32)CC1 [Example 480] | –
33 | 140 nM | > 3000 nM | Cn1ncc2nc(-n3cc(C(=O)O)cn3)nc(O)c21 [Example 485] | –
34 | 40 nM | 690 nM | CCC1CCCC(n2ncc3nc(-n4cc(C(=O)O)cn4)nc(O)c32)C1 (stereo not drawn) [Example 415] | –
35 | 72 nM | 1100 nM | CC(C)(C)[C@H]1CC[C@@H](n2ncc3nc(-n4cc(C(=O)O)cn4)nc(O)c32)CC1 [Example 391] | –
36 | 47 nM | 510 nM | CC[C@H]1CC[C@H](n2ncc3nc(-n4cc(C(=O)O)cn4)nc(O)c32)CC1 [Example 388] | –
37 | 120 nM | 2800 nM | CC(C)c1nn(CC2CCCCC2)c2c(O)nc(-n3cc(C(=O)O)cn3)nc12 [Example 233] | –
38 | > 300 nM | > 3000 nM | Cn1nc(C2CCCCC2)c2nc(-n3cc(C(=O)O)cn3)nc(O)c21 [Example 501] | –
39 | 52 nM | 790 nM | CCC(c1cccc(C(F)(F)F)c1)n1ncc2nc(-n3cc(C(=O)O)cn3)nc(O)c21 (stereo not drawn) [Example 341] | –
40 | 15 nM | 170 nM | C[C@@H](C1CCN(c2cccc(Cl)c2)CC1)n1ncc2nc(-n3cc(C(=O)O)cn3)nc(O)c21 [Example 435] | –
41 | 110 nM | 710 nM | C[C@@H](c1ccc(F)cc1)n1nc(C2CC2)c2nc(-n3cc(C(=O)O)cn3)nc(O)c21 [Example 457] | –
42 | 51 nM | 440 nM | C[C@@H](c1ccc(F)cc1Cl)n1cc2nc(-n3cc(C(=O)O)cn3)nc(O)c2n1 [Example 505] | –
